Measurements published in patent publication US20260242405A1, “N-DERIVATIZED SIALIC ACIDS AND RELATED SIALOSIDES” (THE REGENTS OF THE UNIVERSITY OF CALIFORNIA, priority 2023, published 2026).
Like-named read-outs stand apart in the source and are kept apart here.

What was measured:
[1] = target: N1-BR18 (IAV neuraminidase) (Influenza A virus, UniProt A0A0X9QTS2); test: Fluorescence-based inhibition assay (substrate Neu5Acα2-3GalβMU, β-galactosidase coupled); type: biochemical, influenza A virus A/Brisbane/02/2018 (H1N1); conditions: for IC50: read-out: IC50 against N1-BR18; for Percentage inhibition against N1-BR18 (IAV) / percentage inhibition against N1-BR18: inhibitor 8.0 μM; for Percentage inhibition against N1-BR18 (IAV): substrate Neu5Acα2-3GalβMU 8.0 μM
[2] = target: NB-Aus21 (IBV neuraminidase) (Influenza B virus, UniProt A0A1X9RX69); test: biochemical; design: species or system influenza B virus B/Austria/1359417/2021
[3] = target: T1, hNEU2 (human cytosolic sialidase) (Homo sapiens, UniProt Q9Y3R4); test: Fluorescence-based inhibition assay (substrate Neu5Acα2-3GalβMU, β-galactosidase coupled); type: biochemical; conditions: inhibitor 8.0 μM
T1 construct: made in house

[4] = tested on: N1-Vic19 (IAV neuraminidase); test: as above; type: biochemical, influenza A virus A/Victoria/2570/2019 (H1N1); conditions: for percentage inhibition against N1-Vic19: inhibitor 8.0 μM, Example 3, Table 4
[5] = target: N2-Dar21 (IAV neuraminidase) (Influenza A virus, UniProt A0A193ACB1); test: as above; type: biochemical, influenza A virus A/Darwin/9/2021 (H3N2); conditions: for inhibition at 8 µM: read-out: percentage inhibition against N2-Dar21; for percentage inhibition against N2-Dar21: inhibitor 8.0 μM, Example 3, Table 4
[6] = target: N2-Kan17 (IAV neuraminidase) (Influenza A virus, UniProt A0A193ACB1); test: as above; type: biochemical, influenza A virus A/Kansas/14/2017 (H3N2); conditions: for inhibition at 8 µM: read-out: percentage inhibition against N2-Kan17; for percentage inhibition against N2-Kan17: inhibitor 8.0 μM, Example 3, Table 4
[7] = target: NB-Phu13 (IBV neuraminidase) (Influenza B virus, UniProt A0A1S5RAG6); test: as above; type: biochemical, influenza B virus B/Phuket/3073/2013; conditions: for inhibition at 8 µM: read-out: percentage inhibition against NB-Phu13; for percentage inhibition against NB-Phu13: inhibitor 8.0 μM, Example 3, Table 4
[8] = target: T2, PmST1 WT (sialidase activity of α2-3-sialyltransferase 1 in the presence of CMP) (Pasteurella multocida, UniProt Q15KI8); test: biochemical; conditions: for inhibition at 8 µM: read-out: percent inhibition against PmST1 WT; for percent inhibition against PmST1 WT: inhibitor 8.0 μM, in the presence of CMP, Table 5
T2 construct: made in house

SpNanA (sialidase) = target: T3, SpNanA (sialidase) (Streptococcus pneumoniae, UniProt P62575); test: Fluorescence-based inhibition assay (substrate Neu5Acα2-3GalβMU, β-galactosidase coupled); type: biochemical; conditions: for inhibition at 8 µM: read-out: percent inhibition against SpNanA; for percent inhibition against SpNanA: inhibitor 8.0 μM, Table 5
T3 construct: made in house

[9] = read-out: Percentage inhibition against N1-BR18 (IAV), inhibitor 8.0 μM, substrate Neu5Acα2-3GalβMU 8.0 μM, Example 2, Table 2
[10] = read-out: percentage inhibition against N1-BR18, inhibitor 8.0 μM, Example 3, Table 4
[11] = inhibitor 8.0 μM, substrate Neu5Acα2-3GalβMU 8.0 μM, Example 2, Table 2, read-out: Percentage inhibition against NB-Aus21 (IBV)
[12] = inhibitor 8.0 μM, Example 3, Table 4, read-out: percentage inhibition against NB-NB-Aus21
[13] = substrate Neu5Acα2-3GalβMU 8.0 μM, Example 2, Table 2, read-out: Percentage inhibition against hNEU2
[14] = Table 5, read-out: percent inhibition against hNEU2
[15] = inhibitor 8.0 μM, substrate Neu5Acα2-3GalβMU 8.0 μM, Example 2, Table 2
[16] = substrate Neu5Acα2-3GalβMU 8.0 μM, Example 2, Table 2
[17] = inhibitor 8.0 μM, Example 3, Table 4

T1 sequence (Q9Y3R4 whole entry): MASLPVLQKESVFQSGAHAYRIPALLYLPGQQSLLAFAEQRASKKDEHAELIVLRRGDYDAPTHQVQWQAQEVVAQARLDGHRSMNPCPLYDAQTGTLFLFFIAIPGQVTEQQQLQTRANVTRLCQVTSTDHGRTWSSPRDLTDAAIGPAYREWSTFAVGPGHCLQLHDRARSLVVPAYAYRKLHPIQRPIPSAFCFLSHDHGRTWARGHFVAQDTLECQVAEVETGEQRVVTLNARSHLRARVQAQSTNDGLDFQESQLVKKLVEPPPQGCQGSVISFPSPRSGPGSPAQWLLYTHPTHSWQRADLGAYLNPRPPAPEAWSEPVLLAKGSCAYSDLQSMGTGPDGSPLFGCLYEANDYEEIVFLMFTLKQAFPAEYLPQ

CC(=O)NC1C[C@](OCC2O[C@@H](Oc3ccc([N+](=O)[O-])cc3)C(O)C(O)[C@H]2O)(C(=O)O)OC([C@H](O)[C@H](O)CO)[C@@H]1NC(C)=O (stereo partly drawn) [4NAcNeu5Acα2-6GalβpNP]
inhibition at 8 µM [1, 9]: 0%
inhibition at 8 µM [1, 10]: 0%
inhibition at 8 µM [2, 11]: 21.5 ± 1.7%
inhibition at 8 µM [2, 12]: 0.4%
inhibition at 8 µM [3, 13]: 0%
inhibition at 8 µM [3, 14]: 0%
percentage inhibition against N1-Vic19 [4]: 0.4%
inhibition at 8 µM [5]: 0.4%
inhibition at 8 µM [6]: 1%
inhibition at 8 µM [7]: 1.5%
inhibition at 8 µM [8]: 18.6 ± 4%
inhibition at 8 µM (SpNanA (sialidase)): 4.2 ± 0.8%

CC(=O)N[C@H]1[C@H]([C@H](O)[C@H](O)CO)OC(C(=O)O)=C[C@@H]1N=[N+]=[N-] [Compound 4N3Neu5Ac2en, 4N3Neu5Ac2en]
IC50 ([1]; Example 3, Table 6): 4.4 ± 0.2 µM
Percentage inhibition against N1-BR18 (IAV) ([1]; Example 2, Table 2): 40.7 ± 2.7%
percentage inhibition against N1-BR18 ([1]; Example 3, Table 4): 39.2%
percentage inhibition against NB-NB-Aus21 ([2]; 8 µM): 78.8±3.7%
IC50 ([2]; Example 3, Table 6, read-out: IC50 against NB-NB-Aus21): 1.5 ± 0.1 µM
Percentage inhibition against NB-Aus21 (IBV) [2, 15]: 82.8 ± 1.7%
Percentage inhibition against hNEU2 [3, 16]: 3.3 ± 0.6%
percent inhibition against hNEU2 ([3]; Table 5): 3.3 ± 0.6%
IC50 ([4]; Example 3, Table 6, read-out: IC50 against N1-Vic19): 6.2 ± 0.4 µM
percentage inhibition against N1-Vic19 [4]: 39.6%
percentage inhibition against N2-Dar21 [5]: 22.1%
percentage inhibition against N2-Kan17 [6]: 18.3%
IC50 ([7]; Example 3, Table 6, read-out: IC50 against NB-Phu13): 1.4 ± 0.1 µM
percentage inhibition against NB-Phu13 [7]: 75.6±1.6%
percent inhibition against PmST1 WT [8]: 15.4 ± 5.0%
percent inhibition against SpNanA (SpNanA (sialidase)): 3.0 ± 1.3%

CC(=O)N[C@H]1[C@H]([C@H](O)[C@H](O)CO)OC(C(=O)O)=C[C@@H]1N [4NH2Neu5Ac2en, 4-amino-2,3-dehydro-N-acetylneuraminic acid, reference compound]
IC50 ([1]; fluorescence-based inhibition assay, Example 2, Table 3, listed as 4NH2Neu5 Ac2en): 0.49 µM
IC50 ([1]; fluorescence-based inhibition assay, Example 2, Table 3): 0.49 µM
Percentage inhibition against N1-BR18 (IAV) ([1]; Example 2, Table 2): 93.6 ± 0.2%
percentage inhibition against N1-BR18 ([1]; Example 3, Table 4): 94.9%
Percentage inhibition against NB-Aus21 (IBV) [2, 15]: 98.3 ± 0.1%
percentage inhibition against NB-NB-Aus21 [2, 17]: 97.4%
Percentage inhibition against hNEU2 [3, 16]: 0.0 ± 6.6%
percent inhibition against hNEU2 ([3]; Table 5): 0.0 ± 6.6%
percentage inhibition against N1-Vic19 [4]: 95.9%
percentage inhibition against N2-Dar21 [5]: 94.6%
percentage inhibition against N2-Kan17 [6]: 91.3%
percentage inhibition against NB-Phu13 [7]: 91.2%
percent inhibition against PmST1 WT [8]: 9.8 ± 1.2%
percent inhibition against SpNanA (SpNanA (sialidase)): 7.9 ± 2.6%

CC(=O)N[C@H]1[C@H]([C@H](O)[C@H](O)CO)OC(O)(C(=O)O)C[C@@H]1N=[N+]=[N-] (stereo partly drawn) [4N3Neu5Ac (7), 4-azido-Neu5Ac]
Percentage inhibition against N1-BR18 (IAV) ([1]; Example 2, Table 2): 0.0 ± 4.5%
Percentage inhibition against NB-Aus21 (IBV) [2, 15]: 37.5 ± 4.1%
Percentage inhibition against hNEU2 [3, 16]: 3.0 ± 0.8%

CC(=O)N[C@H]1[C@H]([C@H](O)[C@H](O)CO)OC(C(=O)O)=C[C@@H]1NC(C)=O [4NAcNeu5Ac2en]
Percentage inhibition against N1-BR18 (IAV) ([1]; Example 2, Table 2): 0.0 ± 2.5%
percentage inhibition against N1-BR18 ([1]; Example 3, Table 4): 2.5%
Percentage inhibition against NB-Aus21 (IBV) [2, 15]: 21.3 ± 0.2%
percentage inhibition against NB-NB-Aus21 [2, 17]: 1.4%
Percentage inhibition against hNEU2 [3, 16]: 2.1 ± 2.5%
percent inhibition against hNEU2 ([3]; Table 5): 2.1 ± 2.5%
percentage inhibition against N1-Vic19 [4]: 0.7%
percentage inhibition against N2-Dar21 [5]: 2.4%
percentage inhibition against N2-Kan17 [6]: 6.1%
percentage inhibition against NB-Phu13 [7]: 0.6%
percent inhibition against PmST1 WT [8]: 7.1 ± 0.7%
percent inhibition against SpNanA (SpNanA (sialidase)): 0.5 ± 6.5%

CC(=O)N[C@H]1[C@H]([C@H](O)[C@H](O)CO)OC(O)(C(=O)O)C[C@@H]1N (stereo partly drawn) [4NH2Neu5Ac (8), 4-amino-4-deoxy-N-acetylneuraminic acid]
inhibition at 8 µM [1, 9]: 28.6 ± 24.5%
inhibition at 8 µM [2, 11]: 41.8 ± 2.8%
inhibition at 8 µM [3, 13]: 2.2 ± 1.2%

CC(=O)N[C@H]1[C@H]([C@H](O)[C@H](O)CO)OC(O)(C(=O)O)C[C@@H]1O (stereo partly drawn) [Neu5Ac (1), N-Acetylneuraminic acid, reference compound]
inhibition at 8 µM [1, 9]: 5.2 ± 5.3%
inhibition at 8 µM [2, 11]: 20.2 ± 2.6%
inhibition at 8 µM [3, 13]: 1.7 ± 0.5%

CC(=O)N[C@@H]1C(O)C[C@](OC2C(O)[C@H](Oc3ccc([N+](=O)[O-])cc3)OC(CO)[C@@H]2O)(C(=O)O)OC1[C@H](O)[C@H](O)CO (stereo partly drawn) [Neu5Acα2-3GalβpNP, reference compound]
inhibition at 8 µM [1, 9]: 2.3 ± 1.2%
inhibition at 8 µM [1, 10]: 1.8%
inhibition at 8 µM [2, 11]: 25.6 ± 2.3%
inhibition at 8 µM [2, 12]: 0.5%
inhibition at 8 µM [3, 13]: 0%
inhibition at 8 µM [3, 14]: 0%
percentage inhibition against N1-Vic19 [4]: 3.3%
inhibition at 8 µM [5]: 0.9%
inhibition at 8 µM [6]: 0.1%
inhibition at 8 µM [7]: 0.7%
inhibition at 8 µM [8]: 12.4 ± 2.2%
inhibition at 8 µM (SpNanA (sialidase)): 17.1 ± 6.1%

CC(=O)N[C@H]1[C@H]([C@H](O)[C@H](O)CO)OC(O)(C(=O)O)C[C@@H]1NC(C)=O (stereo partly drawn) [4NAcNeu5Ac (3), 4NAcNeu5Ac]
Percentage inhibition against N1-BR18 (IAV) ([1]; Example 2, Table 2): 11.5 ± 22.7%
Percentage inhibition against NB-Aus21 (IBV) [2, 15]: 27.9 ± 10.1%
Percentage inhibition against hNEU2 [3, 16]: 3.0 ± 1.0%

CC(=O)N[C@@H]1C(O)C[C@](OCC2O[C@@H](Oc3ccc([N+](=O)[O-])cc3)C(O)C(O)[C@H]2O)(C(=O)O)OC1[C@H](O)[C@H](O)CO (stereo partly drawn) [Neu5Acα2-6GalβpNP, reference compound]
inhibition at 8 µM [1, 9]: 0%
inhibition at 8 µM [1, 10]: 3.5%
inhibition at 8 µM [2, 11]: 25.8 ± 2.1%
inhibition at 8 µM [2, 12]: 0.2%
inhibition at 8 µM [3, 13]: 0%
inhibition at 8 µM [3, 14]: 0%
percentage inhibition against N1-Vic19 [4]: 1.4%
inhibition at 8 µM [5]: 0.8%
inhibition at 8 µM [6]: 0.4%
inhibition at 8 µM [7]: 0.8%
inhibition at 8 µM [8]: 14.6 ± 6.4%
inhibition at 8 µM (SpNanA (sialidase)): 5.8 ± 6.8%

CC(=O)N[C@H]1[C@H]([C@H](O)[C@H](O)CO)OC(O)(C(=O)O)C[C@@H]1NC(=N)N (stereo partly drawn) [4-Guanidino-Neu5Ac (9), 4-guanidino-Neu5Ac]
Percentage inhibition against N1-BR18 (IAV) ([1]; Example 2, Table 2): 76.4 ± 4.9%
Percentage inhibition against NB-Aus21 (IBV) [2, 15]: 51.0 ± 0.1%
Percentage inhibition against hNEU2 [3, 16]: 3.3 ± 0.6%
